Assay results taken from paper PMC6920704, “1-(Piperidin-3-yl)thymine amides as inhibitors of M. tuberculosis thymidylate kinase” (Journal of Enzyme Inhibition and Medicinal Chemistry, 2019).

molecular target: T1, MtbTMPK (M. tuberculosis thymidylate kinase) (Mycobacterium tuberculosis, UniProt P9WKE1); assay: coupled spectrophotometric assay (NADH, […] nm); format: biochemical; details: read-out: IC50MtbTMPK
T1 construct: gene tmk
T1 sequence (P9WKE1 whole entry, looked up): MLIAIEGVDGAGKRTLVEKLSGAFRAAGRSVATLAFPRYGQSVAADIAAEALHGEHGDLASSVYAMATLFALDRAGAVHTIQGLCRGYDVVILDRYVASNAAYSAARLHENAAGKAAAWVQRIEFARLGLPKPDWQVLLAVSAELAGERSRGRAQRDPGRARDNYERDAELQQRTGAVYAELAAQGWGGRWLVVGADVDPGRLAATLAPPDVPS

| Compound | IC50 |
| --- | --- |
| Cc1cn(C2CCCN(C(=O)c3cccc(Oc4cc(F)cc(F)c4)c3)C2)c(=O)[nH]c1=O (stereo not drawn) [4j] | 31 ± 2 µM |
| Cc1cn(C2CCCN(C(=O)c3cccc(Oc4cccc(C(F)(F)F)c4)c3)C2)c(=O)[nH]c1=O (stereo not drawn) [4f] | 53 ± 12 µM |
| Cc1cn(C2CCCN(C(=O)c3cccc(Oc4cc(Cl)cc(Cl)c4)c3)C2)c(=O)[nH]c1=O (stereo not drawn) [4i] | 13 ± 1 µM |
| Cc1cn(C2CCCN(C(=O)c3cccc(Oc4ccc([N+](=O)[O-])cc4)c3)C2)c(=O)[nH]c1=O (stereo not drawn) [4e] | 30 ± 3 µM |
| Cc1cn(C2CCCN(C(=O)c3cccc(Oc4cccc(N(C)C)c4)c3)C2)c(=O)[nH]c1=O (stereo not drawn) [4a] | 39 ± 3 µM |
| Cc1cn(C2CCCN(C(=O)c3cccc(Oc4ccc(Cl)c(Cl)c4)c3)C2)c(=O)[nH]c1=O (stereo not drawn) [4g] | 18 ± 1 µM |
| Cc1cn(C2CCCN(C(=O)c3cccc(Oc4ccc(Cl)cc4)c3)C2)c(=O)[nH]c1=O (stereo not drawn) [4c] | 39 ± 19 µM |
| Cc1cn(C2CCCN(C(=O)c3cccc(Oc4ccc(F)c(F)c4)c3)C2)c(=O)[nH]c1=O (stereo not drawn) [4h] | 23 ± 1 µM |
| COc1cccc(Oc2cccc(C(=O)N3CCCC(n4cc(C)c(=O)[nH]c4=O)C3)c2)c1 (stereo not drawn) [4b] | 15 ± 1 µM |
| Cc1cn(C2CCCN(C(=O)c3cccc(Oc4ccccc4)c3)C2)c(=O)[nH]c1=O (racemic) [compound 3, 3] | 28 ± 2 µM |
| Cc1cn(C2CCCN(C(=O)c3cccc(Oc4ccc(F)cc4)c3)C2)c(=O)[nH]c1=O (stereo not drawn) [4d] | 18 ± 1 µM |

molecular target: T1, MtbTMPK (M. tuberculosis thymidylate kinase); assay: coupled spectrophotometric assay (NADH, […] nm); format: biochemical; details: 0.5 mM ATP, 0.05 mM dTMP, 2 mM MgCl2, 50 mM KCl, 50 mM Tris-HCl pH 7.4, 30 °C; unreliable (above the highest tested concentration of 0.12 mM)

| Compound | IC50MtbTMPK |
| --- | --- |
| Cc1cn(C2CCCN(C(=O)c3cccc(Oc4cc(C(F)(F)F)cc(C(F)(F)F)c4)c3)C2)c(=O)[nH]c1=O (stereo not drawn) [4k] | 158 ± 89 µM |
